Data: patent US20110294728A1, “Antiviral Polypeptides” (priority 2008, published 2011)
“And” between values parts separate entries of the source, which are not always exact repeats. Equal entries are not always repeated. Where two headings read alike, the source gives them in different places. Where no end group is shown, it is not given here.

Assays:
HIV-1 strain NDK = conditions: peptide with Pep-1 or Pep-3 at ratio 20/1, combinations with Pep-3
HIV-1 strain BH10 = conditions: peptide with Pep-1 or Pep-3 at ratio 20/1, combinations with Pep-3
HIV-1 integrase = target: T1, HIV-1 integrase (Human immunodeficiency virus type 1 group M subtype B, UniProt P04585); assay: biochemical; assay type: binding
T1 construct: Integrase is a 32 kDA viral protein that is biologically active under a multimeric form
Experimental: Fluorescein-labeled peptides (40 nM) were mixed with varying concentrations of integrase in 20 mM Tris pH 7.2, 50 mM NaCl, 10 mM MgCl2, and the r values were recorded.
Effect of the different peptides on the integrase (IN) activity, DNA binding and IN/DNA dissociation were evaluated as described in Example III.1 above, using fluorescence polarization and anisotropy measurements. Binding constant of the peptide for IN was determined by steady state fluorescence and anisotropy.

HIV-1 strain 2165 = conditions: peptide with Pep-1 or Pep-3 at ratio 20/1, combinations with Pep-3
HIV-1-LAI strain = tested on: HIV-1-LAI strain
Experimental: The anti-HIV activities of the peptides were assayed according to the methods described in Roisin et al. (2004). Phytohemagglutinin-P(PHA-P)-activated peripheral blood mononuclear cells (PBMC) treated by increasing concentrations of peptide (from 100 to 0.1 nM), one hour later, were infected with hundred 50% tissue culture infectious doses (TCID50) per 100,000 cells of the HIV-1-LAI strain (Barre-Sinoussi et al., 1983). This virus was amplified in vitro on PHA-P-activated PBMC. Viral stock was titrated using PHA-P-activated PBMC, and 50% TCID50 were calculated using Kärber's formula (Kärber, 1931). Samples were maintained throughout the culture, and cell supernatants were collected at day 7 post-infection and stored at −20° C. Viral replication was measured by quantifying reverse transcriptase (RT) activity in cell culture supernatants. In parallel, cytotoxicity of the compounds was evaluated in uninfected PHA-P-activated PBMC by colorimetric 3-(4-5 dimethylthiazol-2-yl)2,5diphenyl tetrazolium bromite (MTT) assay on day 7 (as described in Mossmann, 1983). Experiments were performed in triplicate and repeated with another blood donor. Data analyses were performed using SofiMax® Pro 4.6 microcomputer software: percent of inhibition of RT activity or of cell viability were plotted vs concentration and fitted with quadratic curves; 50% effective doses (ED50) and cytotoxic doses (CD50) were calculated.
In order to avoid any limitation due to the poor ability of peptides to cross cellular membranes, they were associated to the peptide-based nanoparticle delivery system Pep-1 (SEQ ID NO: 29), at a 1/10 molar ratio.

HIV-1 strain 2914 = conditions: peptide with Pep-1 or Pep-3 at ratio 20/1, combinations with Pep-3
IN/DNA complexes = IN/DNA complexes (Human immunodeficiency virus type 1 group M subtype B, UniProt P04585); assay: DNA-binding of integrase, fluorescence anisotropy; assay type: biochemical, HIV-1
Experimental: The simultaneous measurement of integrase-DNA interaction and subsequent 3′-processing activity by steady-state fluorescence anisotropy was performed as described in Guiot et al. (2006). […] After the initial DNA-binding step (performed at 25° C.), the 3′-processing activity was measured at 37° C. by fixed-time experiments: The reaction was stopped at varying times by adding SDS (0.25% final) which disrupts all IN-DNA complexes in the sample. The IN-mediated cleavage of the terminal GT dinucleotide (labeled by fluorescein on the 3′-end) leads to a significant decrease of r as compared to the r value corresponding to the fluorescein-labeled unprocessed DNA substrate. The fraction of released dinucleotide is calculated by using Eq. (1): […]

IN/LEDGF complex = IN/LEDGF complex (Human immunodeficiency virus type 1 group M subtype B, UniProt P04585); assay: Dissociation of IN/LEDGF complex (AlphaScreen, immunoprecipitation); assay type: biochemical
Experimental: Dissociation of IN/LEDGF complex was measured by fluorescence resonance energy transfer (AlphaScreen® technology) and immunoprecipitation experiments: • Amplified Luminescent Proximity Homogeneous Assay (ALPHA): when the proteins (IN and LEDGF), linked to acceptor and donor beads, interact together (i.e., are into close proximity), a photosignal (a high amplified signal with output in the 520-560 nm range) is detected; when the proteins are not in close proximity, the reactive oxygen decays and there is no detectable signal generated; • immunoprecipitation (IP) was performed using polyclonal anti LEDGF antibodies (purchased from Santa Cruz Biotechnology, USA) and polyclonal HA antibodies (purchased from Eurogentec, Belgium). Cell line expression HA-tagged integrase was using for the experiment in the presence of increasing concentrations of peptide inhibitors.

wild type HIV 1 virus = assay: HIV propagation in Hu-PBL-SCID mice, wild type virus; assay type: in vivo, Hu-PBL-SCID transgenic mice; conditions: 20 mg/kg; peptides formulated with CADY-2c/CADY-1S1; HIV-1 DNA copies in splenocyte extracts
Experimental: The potency of the peptides p27 (SEQ ID NO: 25) and p16 (SEQ ID NO: 19) was assessed in vivo following intravenous challenge of Hu-PBL-SCID transgenic mice (in which human (hu) peripheral blood leukocytes (PBLs) from healthy Epstein-Barr virus (EBV)-seropositive donors are injected into severe combined immunodeficiency (SCID) mice; Mosier et al., 1988). The mice (6 to 8 week-old male mice, 5 animals per group) were infected with wild type HIV 1 virus or efavirenz-resistance HIV strain harbouring K103N and N341V mutations on reverse transcriptase. Infected mice were treated with peptides formulated with the peptide vector CADY-2c (see above) in water at a ratio 1/20, and then particles were coated with 3% of CADY-1S1 (see above), as described in International Application WO 2007/069090. Particles were injected intravenously (100 μl) every 2 days for 1 week, then HIV-1 copy were quantified by quantitative PCR. Efavirenz (a non-nucleoside reverse transcriptase inhibitor; EFZ) was used a positive drug control.

HIV-1 strain 1650 = conditions: peptide with Pep-1 or Pep-3 at ratio 20/1, combinations with Pep-3
HIV-1 215Y = assay type: cell-based; conditions: AZT-resistant
HIV-1 74V = assay type: cell-based; conditions: resistant to ddI and ddC
[1] = read-out: EC50 HIV-1 lai, Table 10

Sequence | IC50 (HIV-1 strain NDK) [nM] | IC50 (HIV-1 strain BH10) [nM] | Kd (HIV-1 integrase) [µM] | IC50 (HIV-1 strain 2165) [nM] | EC50 (HIV-1-LAI strain; [1]) [nM] | IC50 (HIV-1 strain 2914) [nM] | EC50 (IN/DNA complexes) [nM] | EC50 (IN/LEDGF complex) [nM] | HIV propagation in vivo (in words) (wild type HIV 1 virus) | IC50 (HIV-1 strain 1650) [nM] | Kd (HIV-1 integrase; read-out: Kd IN binding, Table 10, cell prints μM) [µM] | IC50 (HIV-1 215Y) | EC50 (HIV-1-LAI strain; PBMC, HIV-1 LAI, day 7, /Pep-1 = associated to Pep-1 at 1/10 molar ratio) [nM] | IC50 (HIV-1-LAI strain; read-out: IC50, antiviral activity, text b123, peptide with Pep-1) [nM] | IC50 (HIV-1 74V)
GTKWLTEVWPL [Peptide P16] | 2.9 | 5.9 | 0.12 | 2.7 | 5.9 | 1.7 | 8000 | 800 | block HIV propagation in vivo | 7.5 |  |  |  |  | 
GTKWLTEWIPLTAE [Peptide P27] | 0.3 | 1.4 | > 100 | 2.6 | 0.21 | 0.2 | > 100000 |  | block HIV propagation in vivo | 0.8 | > 100 | 2.7 nM and 3.9 nM | > 1000 | < 0.32 | 3.8 nM and 4.9 nM
